These results are taken from patent publication US9463193B2, “Individual 5-fluorouracile dose optimization in folfiri treatment” (INSTITUT DE CANCEROLOGIE DE L'OUEST, priority 2008, dated 2016).

For series [1] the following is noted: human, in vivo.
Method: A total of 90 patients were studied. All were treated for advanced colorectal cancer following treatment including irinotecan, fluorouracil and leucovorin (FOLFIRI Regimen)
After 200 mg/m^2 of intravenous leucovorin bolus and 400 mg/m^2 of intravenous push of 5-FU for 10 minutes, 5-FU was administered with an initial dose of 2,500 mg/m^2 every two weeks for 46-hours through a battery-operated pump, except in case of DPD significant mutation, in which case the initial dose of 5-FU in 46 hours continuous infusion was decreased by 50%.
Irinotecan was administered before 5-FU for 2 hours and the initial dose was 180 mg/m^2 without reduction for UGT 1A1 7/7 genotype group.
Treatment was continued until documented progression.
Statistical analysis used the chi2 test, linear regression analysis and the Kaplan-Meier method.
The conditions of series [2]: patients treated by 5-FU; cited from earlier work.
For series [3] the following is noted: cited from earlier work.
Setting [4] is: subject with normal DPD enzymatic activity.

With `O=c1[nH]cc(F)c(=O)[nH]1` [5-FU, 5-fluorouracile], in series [1], the “neutropenia grade 4, number observed” value is recorded as 1. Moreover, in series [2], the “death due to polyvisceral toxicity” value was 0.8 % of treated patients, the “severe grade 3-4 toxicity” value is given as 20-25% and the “very early polyvisceral toxicity” value is 5-8 % of patients. Moreover, the “time to plateau of plasmatic levels after beginning of continuous infusion” value in series [3] (5-FU continuous infusion) is “about 1 hour”. In series [3] (human, in vivo), the half-life in blood entry is given as “very short”. Also, the “5-FU clearance variation depending on the subject” value in series [3] (interindividual) is given as 6 to 10 factor. Further, the “clearance multiplication from bolus administration to continued perfusion” value in series [3] (perfusion during several hours or days) is listed as 10 factor. Also, in series [3] (setting [4]), the “administered 5-FU available for the anabolic pathway” value is 20% and the “administered 5-FU eliminated by DPD in the catabolic pathway” value is on record as “about 80%”.
